In assay [1] the target is recombinant human S1P1 receptor (Homo sapiens, UniProt P21453). Briefly: GTPγS assay to determine EC50 values. The note with it: 35S-GTPγS binding, membranes of CHO cells expressing recombinant human S1P1 receptor, pH 7.4. The assay is classed as biochemical. How it is done: GTPγS assay to determine EC50 values
GTPγS binding assays are performed in 96 well microtiter plates (Nunc, 442587) in a final volume of 200 μl, using membrane preparations of CHO cells expressing recombinant human S1P1 receptor. Assay conditions are 20 mM Hepes (Fluka, 54461), 100 mM NaCl (Fluka, 71378), 5 mM MgCl2 (Fluka, 63064), 0.1% BSA (Calbiochem, 126609), 1 μM GDP (Sigma, G-7127), 2.5% DMSO (Fluka, 41644), […] ^35S-GTPγS (Amersham Biosciences, SJ1320). The pH is 7.4. Test compounds are dissolved and diluted in 100% DMSO and pre-incubated at room temperature for 30 min in 150 μl of the above assay buffer, in the absence of ^35S-GTPγS. After addition of 50 μl of ^35S-GTPγS, the assay is incubated for 1 h at rt. The assay is terminated by transfer of the reaction mixture to a Multiscreen plate (Millipore, MAHFC1H60) using a cell harvester from Packard Biosciences, and the plates are washed with ice-cold 10 mM Na2HPO4/NaH2PO4 (70%/30%), dried, sealed at the bottom and, after addition of 25 μl MicroScint20 (Packard Biosciences, order#6013621), sealed on the top. Membrane-bound ^35S-GTPγS is measured with a TopCount from Packard Biosciences.
EC50 is the concentration of agonist inducing 50% of the maximal specific ^35S-GTPγS binding. Specific binding is determined by subtracting non-specific binding from maximal binding. Maximal binding is the amount of cpm bound to the Multiscreen plate in the presence of 10 μM of S1P. Non-specific binding is the amount of binding in the absence of an agonist in the assay.

For another assay, the system named is circulating lymphocytes. Briefly: Assessment of in vivo efficacy: circulating lymphocytes after oral administration. The arrangement: species or system Wistar rats. As to conditions: Rattus norvegicus, Lymphocyte; 6 h after oral administration of 10 mg/kg to normotensive male Wistar rats, compared to animals treated with vehicle only; mean±SEM; read-out: Lymphocyte counts. As to the method: Assessment of In vivo Efficacy
The efficacy of the compounds of formula (I) is assessed by measuring the circulating lymphocytes after oral administration of 3 to 30 mg/kg of a compound of formula (I) to normotensive male Wistar rats. The animals are housed in climate-controlled conditions with a 12 h-light/dark cycle, and have free access to normal rat chow and drinking water. Blood is collected before and 3, 6 and 24 h after drug administration. Full blood is subjected to hematology using Advia Hematology system (Bayer Diagnostics, Zurich, Switzerland).
All data are presented as mean±SEM. Statistical analyses are performed by analysis of variance (ANOVA) using Statistica (StatSoft) and the Student-Newman-Keuls procedure for multiple comparisons. The null hypothesis is rejected when p<0.05.

Data on four compounds can be found in US8299086B2, “Pyrimidine derivatives” (Actelion Pharmaceuticals Ltd., priority 2007, dated 2012).

recombinant human S1P1 receptor, sequence (P21453 whole entry): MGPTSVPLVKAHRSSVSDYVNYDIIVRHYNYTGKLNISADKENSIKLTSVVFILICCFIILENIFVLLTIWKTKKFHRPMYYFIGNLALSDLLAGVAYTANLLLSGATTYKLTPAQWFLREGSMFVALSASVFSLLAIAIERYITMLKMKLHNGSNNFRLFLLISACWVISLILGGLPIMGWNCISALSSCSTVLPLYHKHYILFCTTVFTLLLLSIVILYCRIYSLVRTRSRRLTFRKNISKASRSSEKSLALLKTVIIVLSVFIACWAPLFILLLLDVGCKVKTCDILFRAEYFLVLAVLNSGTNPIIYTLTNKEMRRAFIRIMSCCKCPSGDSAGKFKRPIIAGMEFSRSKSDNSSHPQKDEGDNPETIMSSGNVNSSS

On to `CCNc1nc(C)cc(-c2nc(-c3cc(C)c(OC[C@@H](O)CNC(=O)CO)c(CC)c3)no2)n1` [Example 1, N—((S)-3-{2-Ethyl-4-[5-(2-ethylamino-6-methyl-pyrimidin-4-yl)-[1,2,4]oxadiazol-3-yl]-6-methyl-phenoxy}-2-hydroxy-propyl)-2-hydroxy-acetamide], for which the EC50 in assay [1] is 1.15 nM. Besides, in the assay with circulating lymphocytes, the change in vivo at 10 mg/kg was -70 ± 3%. For the compound `CCc1cc(-c2noc(-c3cc(C)nc(OCC(C)C)n3)n2)cc(C)c1OC[C@@H](O)CNC(=O)CO` [Example 40, N—((S)-3-{2-ethyl-4-[5-(2-isobutoxy-6-methyl-pyrimidin-4-yl)-[1,2,4]oxadiazol-3-yl]-6-methyl-phenoxy}-2-hydroxy-propyl)-2-hydroxy-acetamide], the change in vivo at 10 mg/kg in the assay on circulating lymphocytes is -69 ± 2%. `CCc1cc(-c2noc(-c3cc(C)nc(NC(C)C)n3)n2)cc(C)c1CCC(=O)NCCO` [Example 138, 3-{2-ethyl-4-[5-(2-isopropylamino-6-methyl-pyrimidin-4-yl)-[1,2,4]oxadiazol-3-yl]-6-methyl-phenyl}-N-(2-hydroxy-ethyl)-propionamide]: the change in vivo at 10 mg/kg with circulating lymphocytes is -74 ± 1%.

For `CCNc1nc(CC)cc(-c2nc(-c3cc(C)c(OC[C@@H](O)CO)c(CC)c3)no2)n1` [Example 65, (S)-3-{2-ethyl-4-[5-(6-ethyl-2-ethylamino-pyrimidin-4-yl)-[1,2,4]oxadiazol-3-yl]-6-methyl-phenoxy}-propane-1,2-diol], in the assay on circulating lymphocytes, the change in vivo at 10 mg/kg was -60 ± 4%.
